Results from US20240033234A1, “THERAPEUTIC COMPOUNDS, FORMULATIONS, AND USE THEREOF” (Tvardi Therapeutics, Inc., priority 2022, published 2024).
Where “and” joins values, the source holds several entries; their conditions need not be identical. Identical values can stand only once.

Experiment: Accelerated and long term stability study of TTI-101 (Batch A, Batch B): HPLC assay, purity, impurities and water content after storage at 5° C., 25° C./60% RH, 30° C./65% RH or 40° C./75% RH
Format: physicochemical
Protocol: Exemplary HPLC conditions: diluent was 0.1% trifluoroacetic acid (TFA) in acetonitrile, Mobile Phase A was 0.05% TFA in water, and Mobile Phase B was 0.05% TFA in acetonitrile, column (Agilent, Eclipse XDB-C18, 3.0×100 mm, particle size 1.8 μm), flow (0.425 mL/min), and detector (280 nm diode array).
Batch A was prepared analogously using Method 3 as described in Example 1. Batch B was prepared according to Method 5 as described in Example 1.
Samples of TTI-101 were stored at 5° C., 25° C./60% RH, 30° C./65% RH, or 40° C./75% RH. TTI-101 was stored in an LDPE bag enclosed with a Nylon cable tie and then transferred to another LDPE bag and enclosed with a Nylon cable tie. The enclosure was put into an HDPE bottle and closed with a polyethylene-lined polypropylene cap. The samples were stored under the above-identified conditions.
The samples were analyzed using HPLC with the exemplary conditions identified above. Relative retention time (RRT) for Compound 5 was about 0.83, Compound 4 was about 1.05-1.06, Compound 6 was about 1.15-1.17, and compound of formula (IV) was about 0.99.
• NA not applicable • NQ ≥0.02% and <0.05% • Avg average • Cmpd compound • — no peak • M month • RRT relative retention time

[1] = Storage 5° C., 4.5 M (25° C./60% RH) + 1.5 M (5° C.), Avg
[2] = Storage 5° C., 4.5 M (25° C./60% RH) + 1.5 M (5° C.), Prep P1-P2
[3] = Storage 5° C., 4.5 M (25° C./60% RH) + 1.5 M (5° C.), Prep P1-P2, listed as Batch B
[4] = Storage 5° C., 9 M, Prep P1-P2, listed as Batch B
[5] = Storage 25° C./60% RH, 0 M, Avg
[6] = Storage 25° C./60% RH, 0 M, Prep P1-P5

Structure (SMILES): COc1ccc(S(=O)(=O)Nc2cc(-c3c(O)ccc4ccccc34)c(O)c3ccccc23)cc1 [TTI-101]
- Water Content (Storage 5° C., 0 M, Avg): 0.1%
- Water Content (Storage 5° C., 0 M, Prep P1-P2): 0.1%
- Impurities Total (Storage 5° C., 0 M, Prep P1-P5): 0.1 area %
- Impurity RRT 0.86 (Storage 5° C., 0 M, Prep P1-P5): NQ (≥0.02% and <0.05%)
- Impurity RRT 0.99 (Storage 5° C., 0 M, Prep P1-P5): NQ (≥0.02% and <0.05%)
- Purity (Storage 5° C., 0 M, Prep P1-P5): 99.8%
- Impurity RRT 1.16 (Cmp 6) (Storage 5° C., 0 M, Prep P1-P5, listed as Batch B): 0.08 area % and 0.07 area %
- Impurities Total [1]: 0.3 area %
- Impurity RRT 0.80 [1]: NQ (≥0.02% and <0.05%)
- Impurity RRT 0.84 [1]: NQ (≥0.02% and <0.05%)
- Impurity RRT 0.87 [1]: NQ (≥0.02% and <0.05%)
- Impurity RRT 0.99 [1]: 0.05 area %
- Impurity RRT 1.02 [1]: NQ (≥0.02% and <0.05%)
- Impurity RRT 1.05 [1]: NQ (≥0.02% and <0.05%)
- Impurity RRT 1.06 (Cmpd 4) [1]: NQ (≥0.02% and <0.05%)
- Impurity RRT 1.17 (Cmp 6) [1]: 0.26 area %
- Impurity RRT 1.39 [1]: NQ (≥0.02% and <0.05%)
- Purity [1]: 99.6%
- Water Content [1]: <0.04%
- Impurity RRT 0.84 [2]: NQ (≥0.02% and <0.05%)
- Impurity RRT 0.87 [2]: NQ (≥0.02% and <0.05%)
- Impurity RRT 1.02 [2]: NQ (≥0.02% and <0.05%)
- Impurity RRT 1.06 (Cmpd 4) [2]: NQ (≥0.02% and <0.05%)
- Impurity RRT 1.39 [2]: NQ (≥0.02% and <0.05%)
- Water Content [2]: <0.04%
- Impurities Total [3]: 0.2 area % and 0.3 area %
- Impurity RRT 1.17 (Cmp 6) [3]: 0.25 area % and 0.27 area %
- Purity [3]: 99.6% and 99.5%
- Assay (Storage 5° C., 9 M, Avg): 99.1%
- Impurities Total (Storage 5° C., 9 M, Avg): 0.3 area %
- Impurity RRT 0.84 (Storage 5° C., 9 M, Avg): NQ (≥0.02% and <0.05%)
- Impurity RRT 0.87 (Storage 5° C., 9 M, Avg): NQ (≥0.02% and <0.05%)
- Impurity RRT 0.99 (Storage 5° C., 9 M, Avg): 0.11 area %
- Impurity RRT 1.02 (Storage 5° C., 9 M, Avg): NQ (≥0.02% and <0.05%)
- Impurity RRT 1.16 (Cmp 6) (Storage 5° C., 9 M, Avg): 0.18 area %
- Impurity RRT 1.39 (Storage 5° C., 9 M, Avg): NQ (≥0.02% and <0.05%)
- Impurity RRT 1.47 (Storage 5° C., 9 M, Avg): NQ (≥0.02% and <0.05%)
- Purity (Storage 5° C., 9 M, Avg): 99.6%
- Water Content (Storage 5° C., 9 M, Avg): 0.05%
- Impurities Total (Storage 5° C., 9 M, Prep P1-P2): 0.3 area %
- Impurity RRT 0.87 (Storage 5° C., 9 M, Prep P1-P2): NQ (≥0.02% and <0.05%)
- Impurity RRT 0.99 (Storage 5° C., 9 M, Prep P1-P2): 0.11 area %
- Impurity RRT 1.02 (Storage 5° C., 9 M, Prep P1-P2): NQ (≥0.02% and <0.05%)
- Impurity RRT 1.39 (Storage 5° C., 9 M, Prep P1-P2): NQ (≥0.02% and <0.05%)
- Purity (Storage 5° C., 9 M, Prep P1-P2): 99.6%
- Assay [4]: 98.7% and 99.4%
- Impurity RRT 1.16 (Cmp 6) [4]: 0.18 area % and 0.17 area %
- Water Content [4]: 0.1% and 0.05%
- Assay [5]: 99.4%
- Impurities Total [5]: 0.1 area %
- Impurity RRT 0.61 [5]: 0.05 area %
- Impurity RRT 0.86 [5]: NQ (≥0.02% and <0.05%)
- Impurity RRT 0.88 [5]: NQ (≥0.02% and <0.05%)
- Impurity RRT 0.99 [5]: NQ (≥0.02% and <0.05%)
- Impurity RRT 1.16 (Cmp 6) [5]: 0.07 area %
- Purity [5]: 99.8%
- Water Content [5]: 0.1%
- Water Content (Storage 25° C./60% RH, 0 M, Prep P1-P2): 0.1%
- Impurities Total [6]: 0.1 area %
- Impurity RRT 0.86 [6]: NQ (≥0.02% and <0.05%)
- Impurity RRT 0.99 [6]: NQ (≥0.02% and <0.05%)
- Purity [6]: 99.8%
